According to ChEMBL document CHEMBL1909046, “DrugMatrix in vitro pharmacology data”:

Assays:
[1] = biological target: T1, Alpha-1A adrenergic receptor (Rattus norvegicus, UniProt P43140); experiment: DRUGMATRIX: Alpha-1A adrenergic receptor radioligand binding (ligand: prazosin); format: cell membranes, Wistar, Submaxillary gland, Membrane; conditions: Not Active = under 50% inhibition at 10 µM
T1 sequence (P43140 whole entry): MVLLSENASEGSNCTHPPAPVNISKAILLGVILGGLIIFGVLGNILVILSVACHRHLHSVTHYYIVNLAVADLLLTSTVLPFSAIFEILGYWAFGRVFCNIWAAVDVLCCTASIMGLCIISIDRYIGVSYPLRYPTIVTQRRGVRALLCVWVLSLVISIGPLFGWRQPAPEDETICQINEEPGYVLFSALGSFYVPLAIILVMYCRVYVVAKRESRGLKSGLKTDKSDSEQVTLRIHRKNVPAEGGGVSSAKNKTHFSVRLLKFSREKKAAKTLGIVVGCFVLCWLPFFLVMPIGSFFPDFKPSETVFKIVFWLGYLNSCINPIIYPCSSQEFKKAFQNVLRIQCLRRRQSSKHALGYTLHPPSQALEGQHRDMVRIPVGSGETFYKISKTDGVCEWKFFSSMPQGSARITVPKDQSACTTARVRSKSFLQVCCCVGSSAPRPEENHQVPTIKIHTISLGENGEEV

[2] = biological target: Beta-3 adrenergic receptor (Homo sapiens, UniProt P13945); experiment: DRUGMATRIX: Adrenergic beta3 radioligand binding (ligand: [125I] Cyanopindolol); format: cell membranes, HEK293, Membrane; conditions: hek293; Not Active = under 50% inhibition at 10 µM
Sequence of Beta-3 adrenergic receptor (P13945 whole entry): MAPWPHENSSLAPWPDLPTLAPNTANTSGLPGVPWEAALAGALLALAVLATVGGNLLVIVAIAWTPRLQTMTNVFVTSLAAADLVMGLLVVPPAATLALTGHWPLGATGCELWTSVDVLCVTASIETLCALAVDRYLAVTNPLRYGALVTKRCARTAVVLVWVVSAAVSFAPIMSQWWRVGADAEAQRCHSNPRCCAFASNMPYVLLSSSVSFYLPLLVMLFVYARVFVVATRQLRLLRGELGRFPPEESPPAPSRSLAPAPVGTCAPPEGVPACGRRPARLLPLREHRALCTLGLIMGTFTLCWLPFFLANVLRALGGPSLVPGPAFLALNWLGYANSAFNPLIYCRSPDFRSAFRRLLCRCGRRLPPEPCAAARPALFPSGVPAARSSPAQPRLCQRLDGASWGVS

Leukotriene C4 synthase = biological target: T2, Leukotriene C4 synthase (Cavia porcellus, UniProt A6XA80); format: tissue-based, Lung;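 note: enzyme inhibition assay of leukotriene C4 synthase, using LTA4 as the substrate; in other assays of this panel Not Active means under 50% inhibition at 10 µM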
T2 sequence (A6XA80 whole entry): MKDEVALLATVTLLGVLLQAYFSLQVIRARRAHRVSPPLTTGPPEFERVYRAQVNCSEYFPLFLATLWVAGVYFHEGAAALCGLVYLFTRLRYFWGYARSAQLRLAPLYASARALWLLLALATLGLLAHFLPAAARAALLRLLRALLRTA

[3] = biological target: T3, Neuropeptide Y receptor type 2 (Homo sapiens, UniProt P49146); format: cell membranes, Membrane; conditions: kan-ts; note: in other assays of this panel Not Active means under 50% inhibition at 10 µM
T3 sequence (P49146 whole entry): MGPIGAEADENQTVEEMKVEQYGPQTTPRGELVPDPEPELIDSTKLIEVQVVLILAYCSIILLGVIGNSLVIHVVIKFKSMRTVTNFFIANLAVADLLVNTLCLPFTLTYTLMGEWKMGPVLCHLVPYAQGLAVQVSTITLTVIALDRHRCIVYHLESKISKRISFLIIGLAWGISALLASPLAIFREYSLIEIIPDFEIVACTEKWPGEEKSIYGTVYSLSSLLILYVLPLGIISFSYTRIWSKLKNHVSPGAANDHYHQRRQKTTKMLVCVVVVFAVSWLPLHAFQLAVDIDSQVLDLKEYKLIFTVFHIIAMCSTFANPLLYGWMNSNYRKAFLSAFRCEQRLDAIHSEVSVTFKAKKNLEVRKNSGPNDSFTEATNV

[4] = biological target: Delta-type opioid receptor (Homo sapiens, UniProt P41143); format: cell membranes, HEK293, Membrane; conditions: hek293; note: in other assays of this panel Not Active means under 50% inhibition at 10 µM
Sequence of Delta-type opioid receptor (P41143 whole entry): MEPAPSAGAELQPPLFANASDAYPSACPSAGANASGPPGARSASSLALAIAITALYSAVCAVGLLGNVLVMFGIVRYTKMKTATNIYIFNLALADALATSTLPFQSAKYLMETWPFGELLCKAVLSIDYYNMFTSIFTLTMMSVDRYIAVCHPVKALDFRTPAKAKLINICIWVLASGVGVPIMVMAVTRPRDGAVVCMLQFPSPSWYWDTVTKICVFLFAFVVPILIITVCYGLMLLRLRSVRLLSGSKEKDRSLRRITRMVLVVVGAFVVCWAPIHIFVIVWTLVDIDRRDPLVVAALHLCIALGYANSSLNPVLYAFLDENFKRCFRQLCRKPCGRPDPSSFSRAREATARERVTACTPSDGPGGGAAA

Caspase-1 = biological target: T4, Caspase-1 (Homo sapiens, UniProt P29466); parameters: species or system Escherichia coli;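 note: Caspase-1 enzyme inhibition assay with a peptide substrate; in other assays of this panel Not Active means under 50% inhibition at 10 µM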
T4 sequence (P29466 whole entry): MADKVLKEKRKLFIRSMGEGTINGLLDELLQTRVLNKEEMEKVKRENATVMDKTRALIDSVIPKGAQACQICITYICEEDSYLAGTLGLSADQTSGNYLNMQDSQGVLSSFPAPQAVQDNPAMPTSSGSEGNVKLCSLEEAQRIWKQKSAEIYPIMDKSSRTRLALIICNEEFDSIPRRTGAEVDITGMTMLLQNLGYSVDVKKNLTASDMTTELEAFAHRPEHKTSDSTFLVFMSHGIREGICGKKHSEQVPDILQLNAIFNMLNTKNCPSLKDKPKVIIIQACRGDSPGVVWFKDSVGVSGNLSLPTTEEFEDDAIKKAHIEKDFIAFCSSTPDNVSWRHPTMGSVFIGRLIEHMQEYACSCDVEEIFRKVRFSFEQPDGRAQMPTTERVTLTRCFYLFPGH

NS(=O)(=O)c1cc2c(cc1Cl)NC(C(Cl)Cl)NS2(=O)=O (stereo not drawn) [TRICHLORMETHIAZIDE]
Not Active: IC50 [1] | IC50 [2] | IC50 (Leukotriene C4 synthase) | IC50 [3] | IC50 [4] | IC50 (Caspase-1)

Cc1c(C)c2c(c(C)c1O)CCC(C)(COc1ccc(CC3SC(=O)NC3=O)cc1)O2 (stereo not drawn) [TROGLITAZONE]
Not Active: IC50 [1] | IC50 [2] | IC50 (Leukotriene C4 synthase) | IC50 [3] | IC50 [4] | IC50 (Caspase-1)

N[C@@H]1[C@H]2CN(c3nc4c(cc3F)c(=O)c(C(=O)O)cn4-c3ccc(F)cc3F)C[C@@H]12 [TROVAFLOXACIN]
Not Active: IC50 [1] | IC50 [2] | IC50 (Leukotriene C4 synthase) | IC50 [3] | IC50 [4] | IC50 (Caspase-1)

N#CC(C#N)=Cc1ccc(O)c(O)c1 [TYRPHOSTIN 23]
Not Active: IC50 [1] | IC50 [2] | IC50 (Leukotriene C4 synthase) | IC50 [3] | IC50 [4] | IC50 (Caspase-1)

CC[C@]1(O)C[C@H]2CN(CCc3c([nH]c4ccccc34)[C@@](C(=O)OC)(c3cc4c(cc3OC)N(C=O)[C@H]3[C@@](O)(C(=O)OC)[C@H](OC(C)=O)[C@]5(CC)C=CCN6CC[C@]43[C@@H]65)C2)C1 [VINCRISTINE]
Not Active: IC50 [1] | IC50 [2] | IC50 (Leukotriene C4 synthase) | IC50 [3] | IC50 [4] | IC50 (Caspase-1)

CCCOc1ccccc1-c1nc2nn[nH]c2c(=O)[nH]1 [ZAPRINAST]
Not Active: IC50 [1] | IC50 [2] | IC50 (Leukotriene C4 synthase) | IC50 [3] | IC50 [4] | IC50 (Caspase-1)

SODIUM NITROPRUSSIDE
Not Active: IC50 [1] | Ki [1] | IC50 [2] | Ki [2] | IC50 (Leukotriene C4 synthase) | Ki (Leukotriene C4 synthase) | IC50 [3] | Ki [3] | IC50 [4] | Ki [4] | IC50 (Caspase-1) | Ki (Caspase-1)
